Experimental data: patent US4337272A, “Amino-ethanol derivatives” (Valeas S. R. L. Industria Chimica E Farmaceutica, priority 1975, dated 1982)
Where a name gives a salt, the structure may show the parent alone.

How the values were obtained:
[1] = test system: Guinea Pig airway constriction; settings: i.v.; literature (Duhault et al.); cited from earlier work
[2] = Acute toxicity LD50 (Litchfield and Wilcoxon); settings: in vivo
[3] = test system: bronchospasm induced by Acetilcholine in conscious guinea pig; experiment: Prevention of acetylcholine-induced bronchospasm in conscious guinea pig by inhalation (Armitage method)

Row | SMILES | active dose in the experimental bronchospasm according to Konzett-Rossler [1] [mg/kg] | LD50 [2] [mg/kg] | time before sign of dispnea (mean) [3] [s]
1 | Cn1c(=O)c2[nH]cnc2n(C)c1=O [Theophylline] | 25 | – | –
2 | CC(C)NCC(O)c1cc(O)cc(O)c1 (centres unmarked) [Orciprenaline, reference compound] | – | 380 | 502 ± 67
3 | COc1ccc(CC(C)NCC(O)c2cc(N)cc(CO)c2)cc1 (centres unmarked) [VAL 5000/PM, 1-(5-amino-3 hydroxymethyl) phenyl-2-(1 p-methoxyphenyl-2-propylamino)ethanol dihydrochloride] | – | 295 | 475 ± 60
